For experiment [1], the system named is adriamycin treated patients. Conditions: Evans et al data set, n=122; cited from earlier work.
Experiment [2] deals with ovarian cancer cell lines. Briefly: Cell proliferation assays (MTS, percentage reduction in growth at 120 hr), Example 1. In kind it is cell-based, human. Conditions: inhibition of proliferation vs probability of pathway activation. As for the experimental part:
Cell lines and RNA extraction-The ovarian cancer cell lines, OV90, TO[…], and TO[…] were grown as recommended by the supplier (ATCC, Rockville, Md.). FUOV1, a human ovarian carcinoma, was grown according to the supplier (DSMZ, Braunschweig, Germany). Eight additional cell lines (C13, OV2008, A2780CP, A2780S, IGROV1, T8, OVCAR5 and IMCC3) were provided by Dr. Patricia Kruk, Department of Pathology, College of Medicine (University of South Florida, Tampa, Fla.). […] All tissue culture reagents were obtained from Sigma Aldrich (St. Louis, Mo.). Total RNA was extracted from each cell line and assayed on the Human 133 plus 2.0 arrays. Cell proliferation assays-Assays measuring cell proliferation and the effects of targeted agents have been described previously^36. Briefly, growth curves for the ovarian cancer cell lines were carried out by plating 300-4000 cells per well of a 96-well plate. The growth of cells at 12 hr time points (from t=12 hrs) was determined using the CellTiter 96 Aqueous One Solution Cell Proliferation Assay Kit by Promega, which is a colorimetric method for determining the number of growing cells. […] The degree of proliferation inhibition was plotted as a function of probability of Src pathway activation or E2F3 pathway activation.

Experiment [3] has as its system ovarian cancer cell lines. Briefly: Cell proliferation assays (percent reduction in growth at 96 hrs), 12 ovarian cancer cell lines, Examples 2 and 3. In kind it is cell-based, human. As for the experimental part:
Cell Culture—All liquid media as well as the Thiazolyl Blue Tetrazolium Bromide were purchased from Sigma Aldrich (St. Louis, Mo.). The Src inhibitor SU6656 and the Topotecan hydrochloride were purchased from Calbiochem (San Diego, Calif.). The ovarian cancer cell lines, OV90, OVCA5, TOV21G, and TOV12D were grown as recommended by the supplier (ATCC, Rockville, Md.). FUOV1, a human ovarian carcinoma, was grown according to the supplier (DSMZ; Braunschweig, Germany). Seven additional cell lines (C13, OV2008, A2780CP, A2780S, IGROV1, T8, IMCC3) were provided by Dr. Patricia Kruk, College of Medicine (University of South Florida, Fla.). All of those seven cell lines were grown in RPMI 1640, supplemented with 10% Fetal Bovine Serum, 1% sodium pyruvate, and 1% non essential amino acids. All tissue culture reagents were obtained from Sigma (UK).
Cell proliferation assays—Growth curves for cells were produces out by plating at 500-10,000 cells per well of a 96-well plate. The growth of cells at 12 hr time points (from t=12 hrs) was determined using the CellTiter 96 Aqueous One 23 Solution Cell Proliferation Assay Kit by Promega, which is a calorimetric method for determining the number of growing cells. […] Cumulatively, these experiments determined the concentration of cells to use for each cell line, as well as the dosing range of the inhibitors. […] Sensitivity to topotecan and a Src inhibitor (SU6656), both single alone and combined was determined by quantifying the percent reduction in growth (versus DMSO controls) at 96 hrs. […]
In the analysis of the various oncogenic pathways, analysis of expression data was done as previously described in Bild A, et al., Nature 439:353-357, 2006 and West M, et al., Proc. Natl. Acad. Sci. USA 2001;98(20):11462-7). […] Each oncogenic signature summarizes its constituent genes as a single expression profile, and is derived as the first principal component of that set of genes (the factor corresponding to the largest singular value) as determined by a singular value decomposition. […]

The subject of experiment [4] is advanced ovarian cancer patients. Briefly: Clinical response to salvage chemotherapy (topotecan, paclitaxel, docetaxel). In kind it is in vivo, human. Conditions: for Actual Overall response: Ovarian, single agent salvage therapy. The text has this:
Classification of topotecan response—Response to therapy was retrospectively evaluated from the medical record using standard criteria for patients with measurable disease, based upon WHO guidelines (Miller A B, et al., Cancer 1981;47:207-14). CA-125 was used to classify responses only in the absence of a measurable lesion; CA-125 response criteria were based on established guidelines (Miller A B, et al. Cancer 1981;47:207-14; Rustin G J, et al., Ann. Onco. 110:21-27, 1999). […] A complete response (CR) was defined as a complete disappearance of all measurable and assessable disease or, in the absence of measurable lesions, a normalization of the CA-125 level following topotecan therapy. A partial response (PR) was considered a 50% or greater reduction in the product obtained from measurement of each bi-dimensional lesion for at least 4 weeks or a drop in the CA-125 by at least 50% for at least 4 weeks. Progressive disease (PD) was defined as a 50% or greater increase in the product from any lesion documented within 8 weeks of initiation of therapy, the appearance of any new lesion within 8 weeks of initiation of therapy, or any increase in the CA-125 from baseline at initiation of therapy. Stable disease (SD) was defined as disease not meeting any of the above criteria.
Tissues—We measured expression of 22,283 genes in 12 ovarian cancer cell lines and 48 advanced (FIGO stage III/IV) serous epithelial ovarian carcinomas using Affymetrix U133A GeneChips. All ovarian cancers were obtained at initial cytoreductive surgery from patients treated at H. Lee Moffitt Cancer Center & Research Institute or Duke University Medical Center. All patients received topotecan as salvage chemotherapy after initial platinum based therapy. All tissues were collected under the auspices of a respective institutional IRB approved protocol with written informed consent.
Classification of topotecan response in tumors—Response to therapy was retrospectively evaluated from the medical record using standard criteria for patients with measurable disease, based upon WHO guidelines ((Miller A B, et al., Cancer 1981;47:207-14). CA-125 was used to classify responses only in the absence of a measurable lesion; CA-125 response criteria were based on established guidelines (Miller A B, et al. Cancer 1981;47:207-14; Rustin G J, et al., Ann. Onco. 110:21-27, 1999). A complete responder was defined as a complete disappearance of all measurable and assessable disease or, in the absence of measurable lesions, a normalization of the CA-125 level following topotecan therapy. Non-responders/patients with progressive disease (PD) were defined as a 50% o or greater increase in the primary lesion(s) documented within 8 weeks of initiation of therapy or the appearance of any new lesion within 8 weeks of initiation of therapy.
Full details of the methods used for RNA extraction and development of gene expression signatures representing deregulation of oncogenic pathways in the tumor samples are recently described.^36 Response to therapy was evaluated using standard criteria for patients with measurable disease, based upon WHO guidelines.^28

In a further experiment the test system is breast cancer patients. Conditions: Breast Tumor Data; published neoadjuvant data sets (MDACC TFAC n=51, complete pathologic response; single agent docetaxel n=24); cited from earlier work.
For experiment [5], the system named is ovarian cancer cell lines. Description: Cell proliferation assay (MTT, 96 hrs), topotecan and SU6656 in 13 ovarian cell lines. Conditions: 13 ovarian cancer cell lines. The experiment is classed as cell-based, human. The method, then: Cell proliferation assays. Growth curves for cells were produced by plating 500-10,000 cells per well in 96-well plates. The growth of cells at 12 hr time points (from t=12 hrs) was determined using the CellTiter 96 Aqueous One 23 Solution Cell Proliferation Assay Kit by Promega, which is a colorimetric method for determining the number of growing cells.^36 The growth curves plot the growth rate of cells vs. each concentration of drug tested against individual cell lines. Cumulatively, these experiments determined the concentration of cells to use for each cell line, as well as the dosing range of the inhibitors. The final dose-response curves in our experiments plot the percent of cell population responding to the chemotherapy vs. the concentration of the drug for each cell line. Sensitivity to docetaxel and a phosphatidylinositol 3-kinase (PI3 kinase) inhibitor (LY-294002)^36 in 17 lung cell lines, and topotecan and a Src inhibitor (SU6656) in 13 ovarian cell lines was determined by quantifying the percent reduction in growth (versus DMSO controls) at 96 hrs using a standard MTT colorimetric assay.^36 Concentrations used ranged from 1-10 nM for docetaxel, 300 nM-10 μM (SU6656), and 300 nM-[…] for LY-294002. All experiments were repeated at least three times.

On to `COc1cccc2c1C(=O)c1c(O)c3c(c(O)c1C2=O)C[C@@](O)(C(=O)CO)C[C@@H]3O[C@H]1C[C@H](N)[C@H](O)[C@H](C)O1` [Adriamycin, adriamycin], for which, in experiment [1], the “Actual Overall response” value was 24/122 (19.6%).

For the compound `CC[C@H](CO)Nc1nc(NCc2ccccc2)c2ncn(C(C)C)c2n1` [CYC202/R-Roscovitine], in experiment [2], the “relationship between predicted pathway deregulation (Src or E2F3) and drug sensitivity” value is “clear and statistically significant relationship”. Besides, the “relationship between predicted adriamycin resistance and sensitivity to cdk inhibitor” value in experiment [3] (ovarian cancer cell lines) is given as “coincides with sensitivity to R-Roscovitine”.

For `CC(=O)O[C@@]12CO[C@@H]1C[C@H](O)[C@@]1(C)C(=O)[C@H](O)C3=C(C)[C@@H](OC(=O)[C@H](O)[C@@H](NC(=O)OC(C)(C)C)c4ccccc4)C[C@@](O)([C@@H](OC(=O)c4ccccc4)[C@H]21)C3(C)C` [Docetaxel, docetaxel], the entries for the “Actual Overall response” value (in experiment [4]; in the experiment on breast cancer patients) were 7/14 (50%) and 13/24 (54.1%), respectively.

Consider `CC(=O)O[C@H]1C(=O)[C@@]2(C)[C@H]([C@H](OC(=O)c3ccccc3)[C@]3(O)C[C@H](OC(=O)[C@H](O)[C@@H](NC(=O)c4ccccc4)c4ccccc4)C(C)=C1C3(C)C)[C@]1(OC(C)=O)CO[C@@H]1C[C@@H]2O` [Paclitaxel, paclitaxel], for which the “Actual Overall response” value in experiment [4] was 20/35 (57.1%).

As to `CN(C)S(=O)(=O)c1ccc2c(c1)/C(=C/c1cc3c([nH]1)CCCC3)C(=O)N2` [SU6656], the “relationship between predicted pathway deregulation (Src or E2F3) and drug sensitivity” value in experiment [2] was “clear and statistically significant relationship”. The “relationship between predicted src-pathway deregulation and response to src-inhibitor alone” value in experiment [3] (12 ovarian cancer cell lines) was “clear relationship”. Moreover, the “effect of Src inhibitor on sensitivity to topotecan” value in experiment [3] (growth inhibition, 12 ovarian cancer cell lines) is recorded as “increases ovarian cancer cell line sensitivity to topotecan”. Besides, in experiment [5], the “relationship between probability of topotecan resistance and sensitivity to Src pathway inhibitor” value is recorded as “significant linear relationship”.

Take `CC[C@@]1(O)C(=O)OCc2c1cc1n(c2=O)Cc2cc3c(CN(C)C)c(O)ccc3nc2-1` [Topotecan, topotecan]: the “Actual Overall response” value in experiment [4] is reported as 20/48 (41.6%). Moreover, in experiment [4] (of 48 patients, non-responder = PD), the “patients classified as topotecan non-responders” value is on record as 18. Besides, the “patients classified as topotecan responders” value in experiment [4] (of 48 patients, responder = CR, PR or SD) was 30.

On to `N.N.[Cl][Pt][Cl]` [cisplatin], for which the “relationship between predicted pathway deregulation (Src or E2F3) and drug sensitivity” value in experiment [2] is listed as “no evident relationship”.

Values taken from patent US20070172844A1, “Individualized cancer treatments” (University of South Florida, priority 2005, published 2007).
